Experimental findings from patent EP1190708A1, “Medical use of substances” (Tinnitus Forschungs- und Entwicklungs GmbH, priority 2000, dated 2002) are described below.

The target in experiment [1] is T1, alpha9/alpha10 heteromeric acetylcholine receptors expressed in Xenopus oocytes (Rattus norvegicus, UniProt P43144+Q9JLB5).
T1 construct: expressed in transfected cells; host or cells: Xenopus laevis oocytes injected with in vitro synthesised mRNA
Briefly: Voltage-clamp recording of current responses to acetylcholine in oocytes expressing alpha9/alpha10 subunits. It is filed as cell-based. How it is done: In vitro mRNA synthesis and oocyte injections were performed as previously described (Fakler, B., Brandle, U., Glowatzki, E., Weidemann, S., Zenner, H.P. and Ruppersberg, J.P. 1995. Cell 80, 149-154; Oliver, D. et al., 2000, see above). The electrophysiology on oocytes was also performed as described previously (Oliver, D. et al., 2000, see above).
For further characterization of strychnine treatment on the nAChR, the mRNA of alpha9/alpha10 subunits of the acetylcholine receptor were injected in oocytes of Xexopus laevis.
After expression of these subunits, they were investigated by treatment with strychnine in voltage-clamp experiment. The cells were held at -30 mV. Current and time scaling are as indicated. As is shown in Fig. 2, similar results were obtained as in Fig. 1. Consistent with the model shown above, the current responses at the acetylcholine receptor could be blocked reversibly by application with the acetylcholine blocker strychnine.
For further characterization of memantine treatment on the neuronal acetylcholine receptor (nAChR), the mRNA of alpha9-/alpha10 subunits of the acetylcholine receptor were injected in oocytes of Xexopus laevis. After expression of that subunits, these subunits were investigated by treatment with memantine in voltage-clamp experiment. The cells were held at -30 mV. Current and time scaling are as indicated. As is shown in Fig. 4, similar results were obtained as in Fig. 3. In this experiment the polarization potential of the cells was meassured after application of 100 µM acetylcholine in the presence or absence of memantine. Consistent with the results obtained in Fig. 3, the current responses at the acetylcholine receptor could be blocked by application with memantine. A halfmaximal inhibition occurs at concentrations of approximately 1 µM, as is illustrated in Figur 4B.

Experiment [2] relates to inhibitory postsynaptic currents (IPSC) in outer hair cells. The experiment in a line: Voltage-clamp recording of inhibitory postsynaptic currents in outer hair cells of the organ of Corti preparation. Set-up: inhibition of postsynaptic currents (reversibility): dose or concentration left out as unconfirmed. The experiment is classed as cell-based, Wistar rats. How it is done: Organs of Corti were dissected from the cochleae of Wistar rats (11-24 days old) as described previously (Oliver, D. and Fakler, B. 1999. J. Physiol. (Lond.) 519 pt. 3, 791-800; Oliver, D., Klöcker, N., Schluck, J., Baukrowitz, T., Rup-persberg, J.P. and Fakler, B. 2000. Neuron 26, 591-601). The electrophysiology on OHCs was also described previously (Oliver, D. et al., 2000, see above).
In Fig 1B, postsynaptic currents were recorded from OHCs in voltage-clamp experiments when cells were held at -64 mV and the whole Corti preparation was superfused with high extracellular K^+ (150 mM) to depolarize the presynapse. Application of high K^+ and toxins as indicated by horizontal bars: current and time scaling as indicated.
In Fig 3, postsynaptic currents were recorded from outer hair cells (OHCs) in voltage-clamp experiments when cells were held at -64 mV and the whole Corti preparation was superfused with high extracellular K^+ to depolarize the presynapse. Application of high K^+ and toxins as indicated by horizontal bars: current and time scaling as indicated. […] This dose-dependent response determined for the IPSC in OHCs is illustrated in Fig. 3B.

T1 sequence (P43144 26-479): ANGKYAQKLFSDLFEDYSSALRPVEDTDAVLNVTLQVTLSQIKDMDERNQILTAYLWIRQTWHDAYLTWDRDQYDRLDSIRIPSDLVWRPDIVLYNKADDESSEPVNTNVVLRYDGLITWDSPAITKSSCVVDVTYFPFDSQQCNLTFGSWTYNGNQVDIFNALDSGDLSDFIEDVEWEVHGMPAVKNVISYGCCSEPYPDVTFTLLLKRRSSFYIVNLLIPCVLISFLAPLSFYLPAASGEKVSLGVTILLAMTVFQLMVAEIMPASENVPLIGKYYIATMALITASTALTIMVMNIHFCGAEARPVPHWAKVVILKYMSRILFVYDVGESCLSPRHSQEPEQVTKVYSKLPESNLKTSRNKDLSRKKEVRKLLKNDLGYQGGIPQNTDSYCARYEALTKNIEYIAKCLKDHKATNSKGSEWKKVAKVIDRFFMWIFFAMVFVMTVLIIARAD
T1 sequence (Q9JLB5 25-447): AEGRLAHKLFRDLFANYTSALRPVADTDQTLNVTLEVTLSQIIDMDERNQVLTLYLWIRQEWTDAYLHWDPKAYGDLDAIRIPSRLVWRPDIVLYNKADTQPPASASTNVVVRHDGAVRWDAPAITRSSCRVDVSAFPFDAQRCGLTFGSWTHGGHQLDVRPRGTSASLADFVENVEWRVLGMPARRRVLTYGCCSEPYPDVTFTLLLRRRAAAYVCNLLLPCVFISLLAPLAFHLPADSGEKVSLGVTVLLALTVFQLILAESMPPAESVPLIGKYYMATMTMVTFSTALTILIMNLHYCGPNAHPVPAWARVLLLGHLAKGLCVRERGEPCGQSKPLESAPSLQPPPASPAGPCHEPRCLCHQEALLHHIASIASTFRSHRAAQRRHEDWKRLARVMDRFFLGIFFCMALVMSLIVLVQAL

As usually defined, the IC50 is the concentration that gives 50% inhibition. For `CC12CC3CC(C)(C1)CC(N)(C3)C2` [memantine], the IC50 in experiment [1] is around 1 µM; in experiment [2] (Rattus norvegicus, iPSC, OHCs held at -64 mV, high extracellular K+, Fig. 3B), around 16.6 µM. Further, the “inhibition of postsynaptic currents (reversibility)” value in experiment [2] (OHCs held at -64 mV, dose-dependent response, Fig. 3) is recorded as “reversibly inhibited”.

Take `O=C1C[C@@H]2OCC=C3CN4CC[C@]56c7ccccc7N1[C@H]5[C@H]2[C@H]3C[C@H]46` [strychnine]: in experiment [1], the “complete inhibition of current responses at the acetylcholine receptor at (concentration)” value stood at 1 µM and the “reversibility of block of the receptor” value is on record as “reversible block of the receptor”. Further, the “complete inhibition of postsynaptic currents at (concentration)” value in experiment [2] is 100 nM.
